The source made the active and inactive calls. No cut-off for these calls is given here.

Holding throughout (assay type): functional
Assay [1] relates to Lactuca sativa. The experiment in a line: Reduction of Lactuca sativa seeds germination at 100 uM daily for 5 days relative to control. Set-up: Activity: scale not given: the % may be the effect or the level left. The settings on record: for inhibition at 100 µM: Lactuca sativa, 120 h.
In assay [2] the test system is Lactuca sativa. Briefly: Reduction of Lactuca sativa length development. More on the design: scale not given: the % may be the effect or the level left.
The subject of assay [3] is Lactuca sativa. Briefly: Reduction of Lactuca sativa shoot length at 0.1 uM relative to control. Set-up: scale not given: the % may be the effect or the level left.
Assay [4] concerns Lactuca sativa. The experiment in a line: Reduction of Lactuca sativa root length at 0.1 uM relative to control. More on the design: scale not given: the % may be the effect or the level left.

As to `CC(=O)/C=C/C=C(C)/C=C/[C@@]1(O)C(C)=CC(=O)CC1(C)C`, in the assay on Lactuca sativa [1], the Activity worked out at 20%.

With `CC(=O)/C=C/[C@H]1C(C)=CC(=O)CC1(C)C`, the inhibition at 100 µM with Lactuca sativa [1] is 30%.

Take `CC(=O)/C=C/C=C(C)/C=C/[C@H]1C(C)=C[C@H](O)CC1(C)C`: the Activity with Lactuca sativa [1] was 20%.

Take `CC(=O)/C=C/[C@@]1(O)C(C)=CC(=O)CC1(C)C`: in the assay with Lactuca sativa [2], the Activity is given as 30%.

Take `CC1=CC(=O)CC(C)(C)[C@@]1(O)/C=C/C(C)=C/CO`: the outcome in the assay with Lactuca sativa [1] was Active.

As to `CC(=O)C=C=C1C(C)(C)C[C@H](O)C[C@@]1(C)O`, the Activity with Lactuca sativa [3] is on record as 30%; in the assay with Lactuca sativa [4], 20%.

For `CC1=CC(=O)CC(C)(C)[C@@]1(O)/C=C/[C@@H](C)O` [BLUMENOL A], the Activity in the assay with Lactuca sativa [2] is listed as 30%.

`CC(=O)/C=C/[C@H]1C(C)=C[C@H](O)CC1(C)C` returned an inhibition at 100 µM in the assay on Lactuca sativa [1] of 30%.

One may read the inhibition as how much of the control response was suppressed.

(Values after ChEMBL document CHEMBL1148223, “Isolation and phytotoxicity of apocarotenoids from Chenopodium album” (2004).)
